Source: patent US6828475B1, “Nucleic acid sequences encoding a plant cytoplasmic protein involved in fatty acyl-CoA metabolism” (Calgene LLC, priority 1994, dated 2004)

Assays:
jojoba wax synthase = assay: Wax synthase assay in jojoba microsomal membrane fraction; assay type: biochemical; conditions: for Wax synthase Activity, Acyl Group: 80 μM acyl-CoA substrate, 100 μM radiolabeled oleyl alcohol; for Wax synthase Activity, Acyl Group / Wax synthase Activity, Alcohol Group: microsomal membrane fraction; for Wax synthase Activity, Alcohol Group: 100 μM alcohol substrate, 40 μM radiolabeled eicosenoyl-CoA
Protocol: Wax synthase activity in a microsomal membrane preparation is measured by incubation of 40 μM [1-^14C] acyl-CoA (usually palmitoyl-CoA, sp. act. 5.1-5.6 mCi/mmol) and 200 μM oleyl alcohol with the sample to be assayed in a total volume of 0.25 ml. The incubation mixture also contains 20% w/v glycerol, 1 mM DTT, 0.5M NaCl and is buffered with 25 mM HEPES (4-[2-hydroxyethyl]-1-piperazineethane-sulfonic acid). HEPES, here and as referred to hereafter is added from a 1M stock solution adjusted to pH 7.5.
A substrate mixture is prepared in a glass vial, with oleyl alcohol being added immediately before use, and is added to samples. Incubation is carried out at 30° C. for one hour. The assay is terminated by placing the assay tube on ice and immediately adding 0.25 ml isopropanol:acetic acid (4:1 v/v). Unlabeled wax esters (0.1 mg) and oleyl alcohol (0.1 mg) are added as carriers. The [^14C] lipids are extracted by the scaled-down protocol of Hara and Radin (Anal. Biochem. (1978) 90:420). Four ml of hexane/isopropanol (3:2, v/v) is added to the terminated assay. The sample is vortexed, 2 ml of aqueous sodium sulphate solution (6.6% w/v) is added, and the sample is again vortexed.
1. Extensive Analysis: Following addition of the sodium sulphate and vortexing the sample, the upper organic phase is removed and the lower aqueous phase is washed with 4 ml hexane/isopropanol (7:2 v/v). The organic phases are pooled and evaporated to dryness under nitrogen. The lipid residue is resuspended in a small volume of hexane, and an aliquot is assayed for radioactivity by liquid scintillation counting. The remainder of the sample can be used for TLC analysis of the labeled classes and thereby give a measure of total wax produced.
For lipid class analysis the sample is applied to a silica TLC plate, and the plate is developed in hexane/diethyl ether/acetic acid (80:20:1 v/v/v). The distribution of radioactivity between the lipid classes, largely wax esters, free fatty acids, fatty alcohols, and polar lipids at the origin, is measured using an AMBIS radioanalytic imaging system (AMBIS Systems Inc., San Diego, Calif.). If necessary the individual lipid classes can be recovered from the TLC plate for further analysis. Reversed-phase TLC systems using C18 plates developed in methanol have also been used for the analysis.
2. Quick Analysis: Following addition of the sodium sulfate and vortexing the sample, a known percentage of the organic phase is removed and counted via liquid scintillation counting. This calculation is used to estimate the total counts in the organic phase. Another portion of the organic phase is then removed, dryed down under nitrogen, redissolved in hexane and spotted on TLC plates and developed and scanned as described for the detailed assay. In this manner the percentage of the total counts which are incorporated into wax is determined.
Acyl-CoA and alcohol substrates having varying carbon chain lengths and degrees of unsaturation were added to a microsomal membrane fraction having wax synthase activity to determine the range of substrates recognized by the jojoba wax synthase. Wax synthase activity was measured as described in Example 1, with acyl specificity measured using 80 μM of acyl-CoA substrate and 100 μM of radiolabeled oleyl alcohol. Alcohol specificity was measured using 100 μM of alcohol substrate and 40 μM of radiolabeled eicosenoyl-CoA.

[1] = test system: NADH-dependent fatty acyl-CoA reductase; assay: NADH-dependent fatty acyl-CoA reductase assay, solubilized microsomal membranes; assay type: biochemical, Euglena gracilis; conditions: in the assay at levels above the CMC (approximately 0.5% (w/v))
Protocol: For example, an NADH-dependent fatty acyl-CoA reductase activity can be obtained from microsomal membranes isolated from Euglena gracilis. Methods which may be used to isolate microsomal membranes are described, for example in the published PCT patent application WO 92/14816 (application number PCT/US92/03164, filed Feb. 21, 1992). The reductase activity is solubilized from these membranes using the same approaches as used for jojoba reductase and wax synthase. Membranes are incubated on ice for one hour with various amounts of the detergent, CHAPS, in a buffering solution consisting of 25 mM BisTris, pH 6.9, 250 mM NaCl, 10% glycerol and 1 mM EDTA. The sample is then centrifuged at 200,000×g for one hour, and the supernatant and pellet fractions assayed for NADH-dependent reductase activity using radiolabeled palmitoyl-CoA and NADH as substrates. A convenient assay for reductase activity is described in PCT patent application WO 92/14816. Incubation of the membranes with 0.3, 0.5 or 0.7 % (w/v) CHAPS results in retention of reductase activity in the supernatant fractions, indicative of solubilization of the enzyme. If CHAPS is omitted during the incubation and centrifugation, all of the reductase activity is found in the pellet fraction. All of the samples are diluted ten-fold in this same buffer solution prior to assaying in order to dilute the CHAPS present during the incubation.

| Compound | Wax synthase Activity, Acyl Group (jojoba wax synthase) [pmol/min] | Wax synthase Activity, Alcohol Group (jojoba wax synthase) [pmol/min] | other results |
| --- | --- | --- | --- |
| CCNC(=O)/C=C\C(N)=O [N-ethylmaleamide] | – | – | effect of sulphydryl agents on wax synthase activity (inhibition) (jojoba wax synthase): much less effective |
| CCCCCCCCCCCCCCCC(=O)SCCNC(C)=O [N-acetyl-S-palmitoyl cysteamine] | – | – | wax synthase activity towards acyl-thioester substrates (jojoba wax synthase; as acyl substrate): no activity was detectable |
| CCCCCCCCCCCCCCCCCC(=O)SCCNC(=O)CCNC(=O)[C@H](O)C(C)(C)COP(=O)(O)OP(=O)(O)OC[C@H]1O[C@@H](n2cnc3c(N)ncnc32)[C@H](O)[C@@H]1OP(=O)(O)O [18:0] | 51 | 56 | – |
| CCCCCCCCCCCCCCCCCCCCCC(=O)SCCNC(=O)CCNC(=O)[C@H](O)C(C)(C)COP(=O)(O)OP(=O)(O)OC[C@H]1O[C@@H](n2cnc3c(N)ncnc32)[C@H](O)[C@@H]1OP(=O)(O)O [22:0] | 46 | 17 | – |
| jojoba wax synthase (microsomal membrane fraction having wax synthase activity) (pool or library) | – | – | wax synthase activity (% of that with acyl-CoA) (palmitoyl-ACP): 10 |
| CCCCCCCCCCCCCCCC(=O)SCCNC(=O)CCNC(=O)[C@H](O)C(C)(C)COP(=O)(O)OP(=O)(O)OC[C@H]1O[C@@H](n2cnc3c(N)ncnc32)[C@H](O)[C@@H]1OP(=O)(O)O [palmitoyl-CoA] | – | – | wax synthase activity towards acyl-thioester substrates (jojoba wax synthase; as acyl substrate): greatest activity |
| palmitoyl-ACP | – | – | wax synthase activity relative to acyl-CoA (jojoba wax synthase; as acyl substrate): ~10 % of that with acyl-CoA |
| NC(=O)CI [Iodoacetamide] | – | – | effect of sulphydryl agents on wax synthase activity (inhibition) (jojoba wax synthase): much less effective |
| CCCCCCCCCCCCCC(=O)SCCNC(=O)CCNC(=O)[C@H](O)C(C)(C)COP(=O)(O)OP(=O)(O)OC[C@H]1O[C@@H](n2cnc3c(N)ncnc32)[C@H](O)[C@@H]1OP(=O)(O)O [14:0] | 95 | 145 | – |
| CCCCCCCCCCCCCCCC(=O)SCCNC(=O)CCNC(=O)[C@H](O)C(C)(C)COP(=O)(O)OP(=O)(O)OC[C@H]1O[C@@H](n2cnc3c(N)ncnc32)[C@H](O)[C@@H]1OP(=O)(O)O [16:0] | 81 | 107 | – |
| O=C(O)c1cc[c]([Hg][OH])cc1 [para-hydroxymercuribenzoate] | – | – | effect of sulphydryl agents on wax synthase activity (inhibition) (jojoba wax synthase): Inhibition; reversal of inhibition of wax synthase activity (jojoba wax synthase; subsequent addition of DTT): could be reversed |
| C[C@H](CCC(=O)NCCC[N+](C)(C)CCCS(=O)(=O)[O-])[C@H]1CC[C@H]2[C@@H]3[C@H](O)C[C@@H]4C[C@H](O)CC[C@]4(C)[C@H]3C[C@H](O)[C@]12C [CHAPS, 3-[(3-cholamidopropyl)-dimethyl-ammonio]-1-propanesulfonate] | – | – | effect on reductase enzyme activity [1]: inhibition of enzyme activity |
| CCCCCCCCCCCCCCCCCCCC(=O)SCCNC(=O)CCNC(=O)[C@H](O)C(C)(C)COP(=O)(O)OP(=O)(O)OC[C@H]1O[C@@H](n2cnc3c(N)ncnc32)[C@H](O)[C@@H]1OP(=O)(O)O [20:0] | 49 | 21 | – |
| CCCCCCCCCCCC(=O)SCCNC(=O)CCNC(=O)[C@H](O)C(C)(C)COP(=O)(O)OP(=O)(O)OC[C@H]1O[C@@H](n2cnc3c(N)ncnc32)[C@H](O)[C@@H]1OP(=O)(O)O [12:0] | 12 | 100 | – |
